Laboratory results from US5821240A, “Pyrimido[5,4]-dipyrimidines, pharmaceuticals containing them, their use and processes for the preparation thereof” (Dr. Karl Thomae GmbH, priority 1996, dated 1998).

Assays:
[1] = test system: F/L-HERc cells expressing human EGF-R; assay: Inhibition of EGF-dependent proliferation of F/L-HERc cells; format: cell-based, murine cell line; human EGF-R; conditions: EGF 20 ng/ml, 37° C., 48 hours
Excerpt: (§1) In this case, an interleukin-3 (IL-3)-dependent cell line of murine origin was used and was genetically modified in such a way that it expresses functional human EGF-R. Proliferation of these cells, which are called F/L-HERc, can therefore be stimulated either by murine IL-3 or by EGF (see von Ruden, T. et al. in EMBO J. 7, 2749-2756 (1988) and Pierce, J. H. et al. in Science 239, […] (1988)).
(§2) The starting material for the F/L-HERc cells was the cell line FDC-P1 whose preparation has been described by Dexter, T. M. et al. in J. Exp. Med. 152, 1036-1047 (1980). However, it is also possible as an alternative to use other growth factor-dependent cells (see, for example, Pierce, J. H. et al. in Science 239, 628-631 (1988), Shibuya, H. et al. in Cell 70, 57-67 (1992) and Alexander, W. S. et al. in EMBO J. 10, 3683-3691 (1991)). Recombinant retroviruses as described in von Ruden, T. et al., EMBO J. 7, 2749-2756 (1988) Were used for expression of the human EGF-R cDNA (see Ullrich, A. et al. in Nature 309, 418-425 (1984)), with the difference that the retroviral vector LXSN (see Miller, A. D. et al. in BioTechniques 7, 980-990 (1989)) was employed for expression of the EGF-R cDNA, and the line GP+E86 (see Markowitz, D. et al. in J. Virol. 62, 1120-1124 (1988)) was used as packaging cell.
(§3) F/L-HERc cells were cultivated in RPMI/1640 medium (BioWhittaker), supplemented with 10% fetal calf serum (FCS, Boehringer Mannheim), 2 mM glutamine (BioWhittaker), standard antibiotics and 20 ng/ml human EGF (Promega), at 37° C. and 5% CO2. To investigate the inhibitor activity of the compounds according to the invention, 1.5×10^4 cells were cultivated in the above medium (200 μl) per well in triplicates in 96-well plates, stimulating proliferation of the cells either with EGF (20 ng/ml) or with murine IL-3. The source used for IL-3 was culture supernatants from the cell line X63/0 mIL-3 (see Karasuyama, H. et al. in Eur. J. Immunol. 18, 97-104 (1988)). The compounds according to the invention were dissolved in 100% dimethyl sulphoxide (DMSO) and added in various dilutions to the cultures, with the maximum DMSO concentration being 1%. The cultures were incubated at 37° C. for 48 hours.
(§4) To determine the inhibitory activity of the compounds according to the invention, the relative cell count was measured in O.D. units using the Cell Titre 96™ AQueous Non-Radioactive Cell Proliferation Assay (Promega). The relative cell count was calculated as a percent of the control (F/L-HERc cells without inhibitor), and the concentration of active substance which inhibits the proliferation of the cells by 50% (IC50) was inferred.

[2] = test system: human tumour cell line KB; assay: Inhibition of EGF/TGF-alpha-stimulated KB cell proliferation ([3H]-thymidine incorporation); format: cell-based; conditions: TGF-alpha 10 ng/ml or EGF 20 ng/ml, serum-free, 60 hours then [3H]-thymidine 16-18 h
Method: KB cells (purchased from ATCC) were passaged in DMEM (BioWhittaker) in the presence of 10% FCS (Boehringer Mannheim), 50 μM beta-mercaptoethanol and standard antibiotics. The EGF-induced DNA synthesis was determined by measuring the incorporation of radioactively labelled thymidine as indicator of EGF/TGF-alpha-stimulated cell proliferation. To do this, the cells were washed twice and 1500 cells per well were plated out in a 96-well plate in 200 μl of IMDM (BioWhittaker) without serum in the presence of 50 μM beta-mercaptoethanol, standard antibiotics, TGF-alpha [10 ng/ml] or EGF [20 ng/ml] and of various concentrations of the substances according to the invention (triplicates, maximum DMSO concentration 1%, see proliferation t t with F/L-HERc cells). After 60 hours, [^3 H]-thymidine (0.1 μCi in 10 μl) was added for about 16-18 h.

[3] = test system: F/L-HERc cells; assay: Inhibition of IL-3-dependent proliferation of F/L-HERc cells; format: cell-based; conditions: Mus musculus, murine IL-3, 37° C., 48 hours
Excerpt: as §1, §2, §3, §4

| SMILES | IC50 [1] [nM] | IC50 [2] [nM] | IC50 [3] [nM] |
| --- | --- | --- | --- |
| Fc1ccc(Nc2ncnc3cnc(NC4CN5CCC4CC5)nc23)cc1Cl (racemic) [1(4), (3'RS)-4-[(3-Chloro-4-fluorophenyl)amino]-6-[(3'-quinuclidinyl)amino]pyrimido[5,4-d]pyrimidine] | 15 | 100 to 1000 | > 10000 |
| NCC1CCN(c2ncc3ncnc(Nc4ccc(F)c(Cl)c4)c3n2)CC1 [1(7), 4-[(3-Chloro-4-fluorophenyl)amino]-6-[4-(aminomethyl)-1-piperidinyl]pyrimido[5,4-d]pyrimidine] | 8 | 100 to 1000 | > 1000 |
| COC(=O)N1CCC(Nc2ncc3ncnc(Nc4ccc(F)c(Cl)c4)c3n2)CC1 [1(8), 4-[(3-Chloro-4-fluorophenyl)amino]-6-[1-methoxycarbonyl-4-piperidinylamino]pyrimido[5,4-d]pyrimidine] | 3 | 100 to 1000 | > 10000 |
| Nc1c(Cl)cc(Nc2ncnc3cnc(N[C@H]4CC[C@H](C(=O)O)CC4)nc23)cc1Cl [1(16), 4-[(4-Amino-3,5-dichlorophenyl)amino]-6-[(trans-4-carboxycyclohexyl)amino]pyrimido[5,4-d]pyrimidine] | 20 | 100 to 1000 | > 1000 |
| CN1CCC(C2CCN(c3ncc4ncnc(Nc5ccc(F)c(Cl)c5)c4n3)CC2)CC1 [1(41), 4-[(3-Chloro-4-fluorophenyl)amino]-6-[4-(1-methyl-4-piperidinyl)-1-piperidinyl]pyrimido[5,4-d]pyrimidine] | 200 | – | > 1000 |
| Fc1ccc(Nc2ncnc3cnc(NC4CCCN(Cc5ccccc5)CC4)nc23)cc1Cl (centres unmarked) [1(42), 4-[(3-Chloro-4-fluorophenyl)amino]-6-[1-benzyl-4-(1-azacycloheptyl)amino]pyrimido[5,4-d]pyrimidine] | > 100 | – | > 1000 |
| CN1CCN(C2CCC(Nc3ncc4ncnc(Nc5ccc(F)c(Cl)c5)c4n3)CC2)CC1 (centres unmarked) [1(46), 4-[(3-Chloro-4-fluorophenyl)amino]-6-[4-(1-methyl-4-piperazinyl)cyclohexylamino]pyrimido[5,4-d]pyrimidine] | 2 | – | > 1000 |
| OCc1cccc(Nc2ncnc3cnc(N[C@H]4CC[C@H](O)CC4)nc23)c1 [1(47), 4-[(3-Hydroxymethylphenyl)amino]-6-[trans-4-hydroxycyclohexylamino]pyrimido[5,4-d]pyrimidine] | > 100 | – | > 1000 |
| OC1CCN(c2ncc3ncnc(Nc4ccc(F)c(Cl)c4)c3n2)CC1 [1(48), 4-[(3-Chloro-4-fluorophenyl)amino]-6-[4-hydroxy-1-piperidinyl]pyrimido[5,4-d]pyrimidine] | 36 | – | > 1000 |
| Fc1ccc(Nc2ncnc3cnc(N4CCCCC4)nc23)cc1Cl [1(49), 4-[(3-chloro-4-fluorohenyl)amino]-6-[1-piperidinyl]pyrimido[5,4-d]pyrimidine] | > 1000 | – | > 1000 |
| N#CN1CCC(Nc2ncc3ncnc(Nc4ccc(F)c(Cl)c4)c3n2)CC1 [1(50), 4-[(3-Chloro-4-fluorophenyl)amino]-6-[(1-cyano-4-piperidinyl)amino]pyrimido[5,4-d]pyrimidine] | 3 | – | > 1000 |
| CN1CCC(CNc2ncc3ncnc(Nc4ccc(F)c(Cl)c4)c3n2)CC1 [1(51), 4-[(3-Chloro-4-fluorophenyl)amino]-6-[(1-methyl-4-piperidinyl)methylamino]pyrimido[5,4-d]pyrimidine] | 9 | – | > 1000 |
| O=C(N1CCOCC1)N1CCN(CCNc2ncc3ncnc(Nc4ccc(F)c(Cl)c4)c3n2)CC1 [1(52), 4-[(3-Chloro-4-fluorophenyl)amino]-6-[2-(4-(morpholinocarbonyl)-1-piperazinyl)ethylamino]pyrimido[5,4-d]pyrimidine] | 10 | – | > 1000 |
| Nc1ncc2ncnc(Nc3ccc(F)c(Cl)c3)c2n1 [1(53), 4-[(3-Chloro-4-fluorophenyl)amino]-6-aminopyrimido-[5,4-d]pyrimidine] | > 100 | – | > 1000 |
| NCCCCCNc1ncc2ncnc(Nc3ccc(F)c(Cl)c3)c2n1 [1(54), 4-[(3-Chloro-4-fluorophenyl)amino]-6-[5-aminopentylamino]pyrimido[5,4-d]pyrimidine] | 10 | – | > 1000 |
| Fc1ccc(Nc2ncnc3cnc(N4CCCCCC4)nc23)cc1Cl [1(55), 4-[(3-Chloro-4-fluorophenyl)amino]-6-[1-azacycloheptyl]pyrimido[5,4-d]pyrimidine] | 40 | – | > 1000 |
| NC1CCCN(c2ncc3ncnc(Nc4ccc(F)c(Cl)c4)c3n2)CC1 (centres unmarked) [1(56), 4-[(3-Chloro-4-fluorophenyl)amino]-6-[4-amino-1-azacycloheptyl]pyrimido[5,4-d]pyrimidine] | 40 | – | > 1000 |
| CC(C)(C)OC(=O)N1CCCC(Nc2ncc3ncnc(Nc4ccc(F)c(Cl)c4)c3n2)CC1 (centres unmarked) [1(57), 4-[(3-chloro-4-fluorophenyl)amino]-6-[1-tert-butyloxy-carbonyl-4-(azacycloheptyl)amino]pyrimido[5,4-d]pyrimidine] | 88 | – | > 10000 |
| Fc1ccc(Nc2ncnc3cnc(NC4CCCNCC4)nc23)cc1Cl (centres unmarked) [1(58), 4-[(3-Chloro-4-fluorophenyl)amino]-6-[4-(azacycloheptyl)amino]pyrimido[5,4-d]pyrimidine] | 4 | – | > 1000 |
| NC[C@H]1CC[C@H](Nc2ncc3ncnc(Nc4ccc(F)c(Cl)c4)c3n2)CC1 [1(59)] | 1 | – | > 1000 |
| O=C(N[C@H]1CC[C@H](CNc2ncc3ncnc(Nc4ccc(F)c(Cl)c4)c3n2)CC1)OCc1ccccc1 [1(60), 4-[(3-Chloro-4-fluorophenyl)amino]-6-[trans-4-(benzyloxycarbonylamino)cyclohexylmethylamino]pyrimido[5,4-d]pyrimidine] | 120 | – | > 10000 |
| NCC1CCCN(c2ncc3ncnc(Nc4ccc(F)c(Cl)c4)c3n2)C1 (centres unmarked) [1(61), 4-[(3-Chloro-4-fluorophenyl)amino]-6-[3-aminomethyl-1-piperidinyl]pyrimido[5,4-d]pyrimidine] | 50 | – | > 1000 |
| Nc1cc(Cl)c(Nc2ncnc3cnc(N[C@H]4CC[C@H](O)CC4)nc23)cc1Cl [1(62), 4-[(4-Amino-2,5-dichlorophenyl)amino]-6-[trans-4-hydroxycyclohexylamino]pyrimido[5,4-d]pyrimidine] | 4 | – | > 10000 |
| O[C@H]1CC[C@H](Nc2ncc3ncnc(Nc4ccc(-c5ccccc5)cc4)c3n2)CC1 [1(63), 4-[4-Biphenylylamino]-6-[trans-4-hydroxycyclohexylamino]pyrimido[5,4-d]pyrimidine] | > 10000 | – | > 10000 |
| O[C@H]1CC[C@H](Nc2ncc3ncnc(Nc4cccc(Oc5ccccc5)c4)c3n2)CC1 [1(64)] | 150 | – | > 10000 |
| COC(=O)[C@H]1CC[C@H](Nc2ncc3ncnc(Nc4ccc(F)c(Cl)c4)c3n2)CC1 [Example 1, 4-[(3-Chloro-4-fluorophenyl)amino]-6-[(trans-4-methoxycarbonylcyclohexyl)amino]pyrimido[5,4-d]pyrimidine] | 200 | – | > 10000 |
